Several values for one entry are separate records, joined by “and”; a condition that tells them apart may be missing. Identical values can stand only once. Marks after values point to notes of the source that are not given here.
Tests used:
[1] = Turbidimetric aqueous solubility; assay type: physicochemical; settings: phosphate buffered saline, estimated precipitation range, PBS pH 7.4, 37 °C
[2] = Microsomal metabolic stability, human; assay type: in vitro ADME
Method: The stability of the compounds was assessed in pooled human and mouse liver microsomes (final protein concentration 0.5 mg/mL). […] At the appropriate time points, the reactions were stopped by transferring into acetonitrile. After protein precipitation, by centrifugation at 3000 rpm for 20 min at 4 °C, the sample supernatants were analyzed using LC–MS/MS analysis (control compounds were included). The elimination rate constant was determined from the ratio of the ln peak area to time. Half-life (t1/2) and intrinsic clearance (CLint) were calculated using the appropriate formulas.

[3] = Hepatocyte stability, human; assay type: in vitro ADME
Method: (§1) Cryopreserved hepatocytes (human and mouse) were used to analyze the stability of the compounds. Hepatocytes (0.5 × 10^6 cells/mL in Williams E medium supplemented with 2 mM L-glutamine and 25 mM N-2-hydroxyethylpiperazin-Ń-ethanesulfonic acid (HEPES)) were preincubated at 37 °C. […] At the appropriate time points, the reactions were stopped by transferring into acetonitrile. After protein precipitation by centrifugation at 3000 rpm for 20 min at 4 °C, the sample supernatants were analyzed by LC–MS/MS analysis (control compounds were included). The elimination rate constant was determined from the ratio of the ln peak area to time. Half-life (t1/2) and intrinsic clearance (CLint) were calculated using the appropriate formulas.

[4] = Hepatocyte stability, mouse; assay type: in vitro ADME
Method: as §1

[5] = system: human CML K562-R xenograft; assay: Efficacy in human CML K562-R xenograft model; assay type: in vivo, female NOD/SCID mice; design: % T/C (treatment/control) / % TGI (tumor growth inhibition): concentration or dose not given beside the values; settings: for Tumor Volume, individual animal / Tumor Volume, group mean: PO QD x 30 days (imatinib 50 mg/kg, 7c 10 mg/kg); for % T/C (treatment/control): mean tumor volume treated vs control; for % TGI (tumor growth inhibition): vs vehicle control
Method: The animals were checked daily for humane end points. Body weight was measured and recorded daily after dosing.
The % T/C value, defined as the ratio of the mean tumor volume for the treated versus control group, was calculated as % T/C = (Tn/Cn) × 100%; whereas Tn: denotes mean tumor volume of the treated group on day n, and Cn: denotes mean tumor volume of the control group on day n. The optimal value is the minimal % T/C ratio, which reflects the maximal tumor growth inhibition achieved.
TGI (Tumor growth inhibition) was calculated by the following formula [drawing 1] [drawing 2]
Whereas: Tn: denotes the mean tumor volume of the treated group on day n; T1: denotes the mean tumor volume of the treated group on day 1; Cn: denotes the mean tumor volume of the vehicle control group on day n; and C1: denotes the mean tumor volume of the vehicle control group at day 1.

DU145-DR cells (ABCB1+) = assay: SP analysis (DCV, flow cytometry) in DU145-DR cells; assay type: cell-based, human; settings: 10 μM
Excerpt: (§2) In recent studies, we described the side population (SP) phenotype as a marker that defines a heterogeneous cellular compartment with stem cell-characteristics in various cancer cell lines derived from solid tumors, such as ovarian cancer, breast cancer, and lung cancer.[26],[27]

MCF7 cells (ABCG2+) = assay: SP analysis (DCV, flow cytometry) in MCF7 cells; assay type: cell-based, human; settings: MCF7, 10 μM
Excerpt: as §2

DU145-DR cells = assay: Chemosensitizing to docetaxel: metabolic activity of DU145-DR cells (MTT); assay type: cell-based, human; settings: compound 10 μM + DTX 12.5 nM, 72 h
Method: The chemosensitizing efficacy was investigated in the ovarian and prostate cancer cell lines using the above-described metabolic activity assay. Paclitaxel (PTX) served as a reference (CTR) in A2780 V SP and IGROV-1 SP cells and docetaxel (DTX) in PC3-DR and D145-DR cells.
COS-7 (2 × 10^3 cells per well), IGROV-1 SP (2.5 × 10^3 cells per well), A2780 V SP (1.5 × 10^3 cells per well), PC3-DR (4 × 10^3 cells per well), and DU145-DR (3 × 10^3 cells per well) cells were seeded in 96-well plates in triplicates and after 24 h, the compounds were added at the respective concentrations. K562-R and K562 cells (2 × 10^4 cells per well), were treated with the compounds 2 h after seeding. […] A modified MTT colorimetric assay (EZ4U kit, Biomedica) was used to determine the metabolic activity of the tested cells, according to the manufacturer’s instructions. Absorbance was measured and the optical density of the respective FCS-containing medium and of the substrate was subtracted to exclude nonspecific staining. Metabolic activity in the absence of the compounds (CTR, DMSO) was set to 100% as reference.

## CCCc1nc2c(C)cc(-c3nc4ccccc4n3C)cc2n1Cc1ccc(-c2ccccc2C(N)=O)cc1 [7c, 4′-((1,7′-Dimethyl-2′-propyl-1H,3′H-[2,5′-bibenzo[d]imidazole]-3′-yl)methyl)-[1,1′-biphenyl]-2-carboxamide]
[1]
  solubility at 2 h: < 6.5 µM
[2]; after 30 min in HLM, 1 μM
  metabolic stability Human, % of compound remaining: 58.1%
[2]; human, pooled human liver microsomes, pH 7.4, HLM, read-out: metabolic stability Human t1/2
  half-life at 1 µM: 45.1 min
[3]; HH
  clearance class: medium clearance
[3]; human, cryopreserved human hepatocytes, HH, read-out: hepatocytic stability human t1/2
  half-life at 1 h, 1 µM: 100 min
[3]; human, cryopreserved human hepatocytes, after 60 min in HH, 1 μM, read-out: hepatocytic stability human, CLint
  hepatocyte CLint at 1 h, 1 µM: 13.8 µL/min/1e6 cells
[4]; MH
  clearance class: high clearance
[4]; mouse, cryopreserved mouse hepatocytes, MH, read-out: hepatocytic stability mouse t1/2
  half-life at 1 h, 1 µM: 44.9 min
[4]; mouse, cryopreserved mouse hepatocytes, after 60 min in MH, 1 μM, read-out: hepatocytic stability mouse, CLint
  hepatocyte CLint at 1 h, 1 µM: 30.9 µL/min/1e6 cells
[5]; Day 1, animals No. 1–7
  Tumor Volume, individual animal: 171 mm3 and 163 mm3 and 155 mm3 and 149 mm3 and 140 mm3 and 136 mm3 and 124 mm3
[5]; Day 1, n = 7
  Tumor Volume, group mean: 148 mm3
[5]; Day 5, animals No. 1–7
  Tumor Volume, individual animal: 197 mm3 and 204 mm3 and 162 mm3 and 148 mm3 and 149 mm3 and 187 mm3 and 130 mm3
[5]; Day 5, n = 7
  Tumor Volume, group mean: 168 mm3
[5]; Day 5
  % T/C (treatment/control): 90%
  % TGI (tumor growth inhibition): 46%
[5]; Day 8, animals No. 1–7
  Tumor Volume, individual animal: 202 mm3 and 360 mm3 and 167 mm3 and 154 mm3 and 155 mm3 and 464 mm3 and 133 mm3
[5]; Day 8, n = 7
  Tumor Volume, group mean: 234 mm3
[5]; Day 8
  % T/C (treatment/control): 96%
  % TGI (tumor growth inhibition): 9%
[5]; Day 12, animals No. 1–7
  Tumor Volume, individual animal: 213 mm3 and 711 mm3 and 201 mm3 and 158 mm3 and 164 mm3 and 949 mm3 and 143 mm3
[5]; Day 12, n = 7
  Tumor Volume, group mean: 363 mm3
[5]; Day 12
  % T/C (treatment/control): 88%
  % TGI (tumor growth inhibition): 18%
[5]; Day 15, animals No. 1–7
  Tumor Volume, individual animal: 216 mm3 and 991 mm3 and 317 mm3 and 165 mm3 and 168 mm3 and 1349 mm3 and 143 mm3
[5]; Day 15, n = 7
  Tumor Volume, group mean: 478 mm3
[5]; Day 15
  % T/C (treatment/control): 75%
  % TGI (tumor growth inhibition): 32%
[5]; Day 19, animals No. 1–7
  Tumor Volume, individual animal: 207 mm3 and 1716 mm3 and 521 mm3 and 192 mm3 and 174 mm3 and 1858 mm3 and 148 mm3
[5]; Day 19, n = 7
  Tumor Volume, group mean: 688 mm3
[5]; Day 19
  % T/C (treatment/control): 84%
  % TGI (tumor growth inhibition): 20%
[5]; Day 22, animals No. 1–7
  Tumor Volume, individual animal: 181 mm3 and 2448 mm3 and 891 mm3 and 198 mm3 and 180 mm3 and 2149 mm3 and 149 mm3
[5]; Day 22, n = 7
  Tumor Volume, group mean: 885 mm3
[5]; Day 22
  % T/C (treatment/control): 79%
  % TGI (tumor growth inhibition): 24%
[5]; Day 26, animals No. 1–7
  Tumor Volume, individual animal: 181 mm3 and 2912 mm3 and 1522 mm3 and 206 mm3 and 188 mm3 and 2607 mm3 and 156 mm3
[5]; Day 26, n = 7
  Tumor Volume, group mean: 1110 mm3
[5]; Day 26
  % T/C (treatment/control): 69%
  % TGI (tumor growth inhibition): 34%
[5]; Day 29, animals No. 1–7
  Tumor Volume, individual animal: 184 mm3 and 3497 mm3 and 1803 mm3 and 214 mm3 and 196 mm3 and 2946 mm3 and 163 mm3
[5]; Day 29, n = 7
  Tumor Volume, group mean: 1286 mm3
[5]; Day 29
  % T/C (treatment/control): 65%
  % TGI (tumor growth inhibition): 38%
[5]; Day 33, animals No. 1–7
  Tumor Volume, individual animal: 200 mm3 and 4707 mm3 and 2923 mm3 and 214 mm3 and 196 mm3 and 3520 mm3 and 172 mm3
[5]; Day 33, n = 7
  Tumor Volume, group mean: 1705* mm3
[5]; Day 33
  % T/C (treatment/control): 63%
  % TGI (tumor growth inhibition): 39%
[5]; harvested on day 33, animals No. 1–7
  Tumor Weight, individual animal: 0.078 g and 3.807 g and 2.646 g and 0.268 g and 0.057 g and 4.319 g and 0.060 g
[5]; harvested on day 33, n = 7
  Tumor Weight, group mean: 1.600 g
DU145-DR cells (ABCB1+)
  effect on SP phenotype: eliminated the SP phenotype
MCF7 cells (ABCG2+)
  effect on SP phenotype: eliminated the SP phenotype
DU145-DR cells
  chemosensitizing to DTX (antimetabolic activity): most active chemosensitizer

Reference: paper PMC11726677, “Eradication of Therapy-Resistant Cancer Stem Cells by Novel Telmisartan Derivatives” (Journal of Medicinal Chemistry, 2024)
